Entries after “also recorded” stand apart in the source; their conditions may differ. Where two headings read alike, the source gives them in different places.
Columns and labels:
σ1 receptor (S1R) = conditions: cited from earlier work
neurons (NeuN) = test: NeuN immunohistochemistry after intrastriatal AMPA; type: in vivo, rat
Experimental: Animals were maintained normothermic (body temperature: 37.0 ± 0.4 °C) during the surgery through the use of a heating blanket (Homeothermic Blanket Control Unit, Harvard Apparatus Limited®, Edenbridge, Kent, UK). Twenty-four hours later, the rats were anesthetized again as described above and scanned with a 3T cryogen-free MRS 3000 scanner with a quadrature, rat head coil (MR Solutions, Guildford, UK), [35] to assess oedema (i.e. lesion size and location) immediately before the PET scan. Parameters for the T2-weighted RARE sequence were: repetition time = 4800 ms, base echo time = 17 ms, effective echo time = 68 ms, number of echoes = 8, bandwidth = 20 kHz, number of samples = 256, number of views = 240, number of averages = 1 with 25 slices of 1.06 mm, giving a final voxel size of 0.136 × 0.136 × 1.06 mm.
Immunohistochemistry was also carried out in rats that received intrastriatal AMPA to visualise NeuN (neuronal marker). Animals were culled by isoflurane overdose confirmed by cervical dislocation. The brains were collected, snap frozen using isopentane on dry ice and stored at -80 °C. Coronal brain sections (20 µm thick) were taken using a cryostat (Leica CM3050s, Leica Biosystems Nussloch GmbH, Germany) and stored at -80 °C. Sections were allowed to defrost and dry at room temperature for 20min and then fixed with 4% paraformaldehyde for 10 min before being washed (6 × 5 min) in phosphate buffered saline (PBS) and incubated for 30 min in 2% normal donkey serum and 0.1% Triton X-100 in PBS to permeabilise and block non-specific binding. Primary antibody incubation was carried out overnight at 4 °C with rabbit anti-NeuN (Abcam, ab177487, 1:500). Following incubation in primary antibody, PBS washes were repeated (3 × 10min) and incubation with the secondary antibody (Alexa Fluor 594nm Donkey anti-rabbit IgG 1:500) was carried out. Images of the lesioned striatum were collected on an Olympus BX51 upright microscope using a 10×/0.30 UPlanFLN objectives and captured using a Retiga 6000 Color and R6 camera through QCapture Pro 7 and Ocular Software (QImaging Inc.). Specific band pass filter sets were used to prevent bleed through from one channel to the next. NeuN staining was quantified using ImageJ (1.52n) [51]-[53] using 5 snapshots for the caudate putamen, 3 snapshots for the globus pallidus and 2 snapshots for the substantia nigra for each side of the brain (ipsi- and contralateral). Both the total number of neurons averaged over the snapshots and the percentage of stained areas were measured.
For NeuN staining analysis and ^18F-IAM6067 autoradiography in the AMPA model, percentage stained area, cell counts and ^18F-IAM6067 were analysed using paired t-tests (ipsi- vs contralateral) for the caudate-putamen, globus pallidus and substantia nigra.

S1R [1] = molecular target: S1R (Rattus norvegicus, UniProt Q9R0C9); test: PET pre-saturation (blocking) studies of ^18F-IAM6067 uptake; type: in vivo; conditions: blocker 1 mg/kg i.v. 20-30 min before scan
Experimental: PET data were expressed as SUV.
As the experiments with CM398 were performed later, scans without and with pre-treatment with CM398 were performed in the same animals and therefore were analysed using 2 way ANOVA with repeated measures for ROI and treatment. ANOVA were followed by a Sidak's post-hoc test.

sigma binding sites = system: sigma binding sites; design: method as in PMID 8221112; conditions: hippocampus of AD patients vs controls, autoradiography; cited from earlier work
S1R [2] = conditions: baboon pre-treated with haloperidol 1 mg/kg i.v.; cited from earlier work
[3] = globus pallidus, 24 h after intrastriatal AMPA 7.5 nmol, ipsi- vs contralateral

Sequence of S1R (Rattus norvegicus, UniProt Q9R0C9) (Q9R0C9 whole entry): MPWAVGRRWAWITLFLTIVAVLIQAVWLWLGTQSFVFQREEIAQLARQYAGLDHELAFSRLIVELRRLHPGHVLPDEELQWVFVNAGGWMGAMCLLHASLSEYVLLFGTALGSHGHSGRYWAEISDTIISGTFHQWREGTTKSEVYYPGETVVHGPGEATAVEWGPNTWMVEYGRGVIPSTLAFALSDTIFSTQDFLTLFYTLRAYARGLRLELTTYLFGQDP

FCC[C@H]1OC2(CCN(Cc3ccccc3)CC2)c2ccccc21 [(R)-^18F-fluspidine]
Ki (σ1 receptor (S1R); enantiomers): 0.52 nM

Cc1onc(O)c1CC(N)C(=O)O (stereo not drawn) [AMPA, α-amino-3-hydroxy-5-methyl-4-isoxazolepropionic acid]
loss of neurons, NeuN % stained area (neurons (NeuN); caudate-putamen, 24 h after intrastriatal AMPA 7.5 nmol, ipsi- vs contralateral): -81 ± 3% | loss of neurons, NeuN % stained area (neurons (NeuN); [3]): -71 ± 8% | loss of neurons, NeuN cell number (neurons (NeuN); [3]): -56 ± 17% | loss of neurons in the striatum (NeuN immunostaining) (neurons (NeuN); striatum): 70-80%

CN(C)CCN(C)CCc1ccc(Cl)c(Cl)c1 [BD1047]
decrease (blocking) of ^18F-IAM6067 uptake in all areas of the brain (S1R [1]): 79-90% | effect of pre-saturation on ^18F-IAM6067 uptake vs baseline (in words) (S1R [1]): full blocking

COc1cc2c(cc1OC)CN(CCCCn1c(=O)n(C)c3ccccc31)CC2 [CM398]
effect of pre-saturation on ^18F-IAM6067 uptake vs baseline (in words) (S1R [1]): no significant blockade; also recorded: did not reveal any significant difference; also recorded: did not result in a significant reduction

Cn1ccc2cc3c(cc21)CCN3C(=O)Nc1cccnc1 [SB206553]
effect of pre-saturation on ^18F-IAM6067 uptake vs baseline (in words) (S1R [1]): no significant blockade; also recorded: did not reveal any significant difference; also recorded: no significant difference

Cc1ccccc1NC(=N)Nc1ccccc1C [^3H-DTG]
decrease in binding (sigma binding sites): 26%

COc1ccc(CCN2CCN(CCCc3ccccc3)CC2)cc1OC [^11C-SA4503]
Ki (σ1 receptor (S1R)): 4.4 nM

O=c1sc2cc(CCCF)ccc2n1CCN1CCCCCC1 [^18F-FTC-146]
Ki (σ1 receptor (S1R)): 0.0025 nM

FCCC1OC2(CCN(Cc3ccccc3)CC2)c2ccccc21 (stereo not drawn) [^18F-fluspidine]
Ki (σ1 receptor (S1R)): 0.59 nM

O=C(CCCN1CCC(O)(c2ccc(Cl)cc2)CC1)c1ccc(F)cc1 [haloperidol]
displacement in specific receptor binding of ^18F-IAM6067 in all areas of the brain (S1R [2]): 80%

(S)-^18F-fluspidine
Ki (σ1 receptor (S1R); enantiomers): 2.3 nM
